`COC(=O)C(C)(N)Cc1csc2ccccc12` (configuration not stated): the melting point lay in the range of 44 to 45 °C.
Turning to `COc1ccc2c(c1)NC(=O)C(CCCN1CCN(c3ccc(F)cc3)CC1)O2` (configuration not stated), the melting point lay within 153 to 154 °C.
`COc1cc2c(c(OC)c1OC)CC(CCCCCCC1Cc3cc(OC)c(OC)c(OC)c3C1)C2` (configuration not stated) gave a melting point of 69 to 70 °C.
As to `c1ccc(-c2ccc(CCNc3ccncc3)cc2)cc1`, the melting point is 140 °C.
With `CC(C)(C)OC(=O)NC1CCCCCC=CC2CC2(C(=O)NS(=O)(=O)C2CC2)NC(=O)C2CC(OC(=O)c3ccc(-n4cccn4)cc3)CN2C1=O` (configuration not stated) the figure was 167 to 169 °C; with `CC(C)(C)c1ccc(C(CCCN2CCC(=NO)CC2)OC2CCCCO2)cc1` (configuration not stated), 150 to 151 °C; with `CCOC(=O)C(C)Cc1ccc(-n2c(C)nn(-c3ccc(C#N)cc3)c2=O)cc1` (configuration not stated), 124 to 128 °C.
For the compound `Nc1cc(=O)n(Cc2ccc3c(c2)OCO3)[nH]1`, the melting point came to 218 °C.
Regarding `O=C(O)c1cc(NC(=O)C(CS)Cc2ccccc2)cc(C(F)(F)F)c1` (configuration not stated), the melting point was in the range of 71 to 74 °C.
In the case of `CCOC(=O)COc1ccc(N(C)c2cc3ccc(Cl)cc3c(Cl)n2)cc1` it was 99 °C; in that of `CCC(=O)c1ccc2c(Cc3ccccc3)c(CC)oc2c1`, 86 to 87 °C; in that of `CSCCC(=O)N(C)c1cnc(-c2cccnc2)s1`, 116 to 118 °C.
The compound `O=C(C=Cc1ccc(F)c(F)c1)c1ccccc1O` registered a melting point of 131 to 133 °C.
Regarding `Nc1ncnc2c1c(-c1ccc(OCc3ccccc3)cc1)cn2-c1cccc(OCCCl)c1`, the melting point is 146 to 148 °C.
With `CC(C)(CBr)c1cc(Cl)nnc1Cl` the figure was 86.5 to 88.5 °C; with `C=C(C)[C@@H]1CC[C@]2(C(=O)N[C@H]3C[C@@H](C(=O)N4CCCC4)C3(C)C)CC[C@]3(C)[C@H](CC[C@@H]4[C@@]5(C)CC[C@H](OC(=O)CC(C)(C)C(=O)O)C(C)(C)[C@@H]5CC[C@]43C)[C@@H]12`, 110 to 114 °C; with `Cc1ccccc1-c1c(NC(=O)C=Cc2ccc(O)c(O)c2)c(=O)oc2cc3c(cc12)CCC3`, 295 to 297 °C.
Turning to `CCOC(=O)c1nc(-c2ccc([N+](=O)[O-])cc2)[nH]c1-c1ccc(N(C)C)cc1`, the melting point lay within 240 to 242 °C.
`O=C(Nc1ccc2nc(CN3CCN=C3c3ccccc3)ccc2c1)c1ccc(-c2ccc(F)cc2)cc1` gave a melting point of 209 to 210 °C.
Turning to `CCCCOc1nc(=O)n(C(=O)NC)s1`, the melting point was 108 °C.
Take `CC(c1oc2ccccc2c(=O)c1-c1cccc(F)c1)n1nc(-c2ccc3c(c2)CCO3)c2c(N)ncnc21` (configuration not stated): the melting point lay within 238 to 241 °C.
`CC1(CNC(=O)OC(C)(C)C)CN(c2cccc(Cl)n2)C1`: the melting point lay in the range of 108 to 111 °C.
Compound `FC(F)(F)c1n[nH]c2c1nc(-c1ccccc1)c1ccccc12` returned a melting point of 264 to 265 °C.
Take `N#CC1=C(N)N(c2ccccc2)CC1=O`: the melting point lay in the range of 285 to 290 °C.
`CCOc1ccc(-c2nc(-c3cc(C(=O)OC)c4oc(C)cc4c3)cs2)cc1OCC` returned a melting point of 144 to 145 °C.
The compound `COc1cccc2c1C(=O)N(C)CC(=O)N2` came in with a melting point of 208 to 210 °C.
As for `COc1ccc(CNc2nnc(N3CCC(CCO)CC3)c3ccc(Cl)cc23)cc1Cl`, the melting point lay within 153 to 155 °C.
In the case of `CC(=O)Oc1ccccc1C(=O)OCCSS(C)(=O)=O` it was 90 to 91 °C; in that of `O=C(c1ccccc1)c1cccnc1Cl`, 35 to 37 °C.
On to `CC(=O)OC1CC=C(CCCCCCC(=O)O)C1=O` (configuration not stated), for which the melting point lay in the range of 62 to 65 °C.
With `COc1cccc(CNC(=O)c2c(-c3ccc(F)cc3)c(-c3ccc(F)cc3)c(C=O)n2C(C)C)c1`, the melting point fell in the range of 167 to 168 °C.
Take `CN(C(=O)OC[C@@]1(C)Cn2cc([N+](=O)[O-])nc2O1)c1ccc(OC(F)(F)F)cc1`: the melting point is 144 to 145 °C.
`CCNC(=O)n1nc(Oc2ncc(C(F)(F)F)cc2Cl)c(Cl)c1C` displayed a melting point of 111 to 112 °C.
Compound `CCCNC(=O)Nc1ccccc1C(=O)OC` had a melting point of 102 °C.
`CC(Cc1cccc(O)c1)NCCC(c1ccccc1)c1ccccc1` (configuration not stated) registered a melting point of 122 to 124 °C.
In the case of `O=C(Nc1cccc(F)c1)C1C(=O)Sc2ccccc21` (configuration not stated) it was 169 to 171 °C; in that of `CCOC(=O)c1sc(N2C[C@@H](Cc3ccccc3)NC2=O)nc1C`, 102 to 103 °C; in that of `CCCC(CCC)n1[nH]c(Cc2c(C)n(C(=O)c3ccc(Cl)cc3)c3ccc(OC)cc23)cc1=O`, 167 to 168 °C.
As to `Cn1ncc(C(N)=O)c1-c1ccc([N+](=O)[O-])o1`, the melting point was 174 to 176 °C.
The compound `CCc1[nH]n(C2CCCC2)c2nc(-c3ccccc3OCCCN3CCOCC3)nc(=O)c1-2` gave a melting point of 220 to 221 °C.
In the case of `Cc1cccc(Cl)c1CNC(=O)C(C)Br` (configuration not stated), the melting point was 168 to 169 °C.
In the case of `COc1c(Cl)cc(-c2cc(F)c(F)cc2-c2ccc(S(N)(=O)=O)cc2)cc1Cl` it was 146 °C; in that of `CO[C@@H]1[C@@H](OC)[C@H](C)O[C@@H](ON=Cc2ccc(-c3cn(-c4ccc(OC(F)(F)F)cc4)cn3)cc2)[C@@H]1OC`, 178 °C; in that of `CCOc1nc(NCc2ccco2)nc(Oc2cccc(C(F)(F)F)c2)n1`, 97 to 99 °C.
Regarding `COc1c(N2CC(C)C(NC3CC3)C(C)C2)c(F)cc2c(=O)c(C(=O)O)cn(C3CC3)c12` (configuration not stated), the melting point was in the range of 240 to 242 °C.
With `COCCn1nc(C)c(-c2ccc3c(c2)NC(=O)CO3)c1-c1ccc(F)cc1`, the melting point was 174 °C.
`O=C(c1ccccc1)N1N=CCC1c1ccccc1` (configuration not stated) yielded a melting point of 105 to 106 °C.
Compound `CCNC(=O)n1nc(Oc2c(F)cc(C(F)(F)F)cc2Cl)cc1C` yielded a melting point of 58 to 60 °C.
With `CCCS(=O)(=O)c1ccc(NS(=O)(=O)c2cccs2)c2[nH]c(C(=O)NCCSC(c3ccccc3)(c3ccccc3)c3ccccc3)cc12` the figure was 200 to 201 °C.
As to `O=C(Nc1ccc(CCCc2nnn[nH]2)cc1)C(F)(F)C(F)(F)C(F)(F)C(F)(F)C(F)(F)C(F)(F)C(F)(F)F`, the melting point was in the range of 170 to 172 °C.
Compound `CCOC(=O)N(C)S(=O)(=O)c1cc2c(c(Cl)c1Cl)OC(C(=O)O)C2` (configuration not stated) yielded a melting point of 199 to 201 °C.
In the case of `c1ccc2c(c1)SCCc1c-2n(CCN2CCCCC2)c2ccccc12` it was 118 °C; in that of `CCCCCCC(=O)CCCn1c(CCC)nc2c(N)nc3ccccc3c21`, 111 to 113 °C; in that of `NNC(=O)NCCSSc1ccccn1`, 105 to 107 °C.
As for `CCC(C#N)=C1CCN(c2ccc(N3C[C@H](CNC(C)=O)OC3=O)cc2F)CC1`, the melting point was in the range of 185 to 186 °C.
With `COc1cnccc1NC(=O)Nc1ccc(N2CCN(C(=O)Nc3ccc(OCCO)cc3C(F)(F)F)CC2)cc1` the figure was 142 to 143 °C; with `CC(C)CC(S)C(=O)NC(CC(C)C)C(=O)NC(Cc1ccc(-c2cccs2)nc1)C(=O)O` (configuration not stated), 156 to 158 °C; with `CCCCCOc1ccc(C=C2SC(=S)N(CC(=O)O)C2=O)cc1OCc1ccccc1`, 229 to 234 °C.
Turning to `CSc1sc(C(N)=O)c(C(C)C)c1-c1oncc1C`, the melting point was 105 °C.
For `CC(=O)OC1CSC(Oc2ccc(-c3cccs3)nc2)C(OC(C)=O)C1OC(C)=O` (configuration not stated), the melting point amounted to 172 °C.
The compound `Cc1nc2c(CCCc3ccccc3)cccn2c1CC#N` gave a melting point of 66.5 to 68 °C.
Turning to `CNc1ccc(-c2cc[nH]n2)cc1`, the melting point is 78 to 86 °C.
Regarding `C[C@@H](C(N)=O)c1ccc(NS(=O)(=O)c2ccccc2)cc1`, the melting point was 152 to 153 °C.
`N#Cc1ccc(C(=O)N[C@H]2CC[C@H](CCN3CCN(c4nccc5c4OCC5)CC3)CC2)cc1` had a melting point of 262 °C.
Compound `CNc1cc(OC)c(OC)cc1[N+](=O)[O-]` yielded a melting point of 147 °C.
As for `CN1CCN(c2cccc3ccc(-c4cccc(F)c4)cc23)CC1`, the melting point was determined as 116 °C.
As to `Cc1ccc(S(=O)(=O)N2CCCC2c2ccccc2Cl)cc1` (racemic), the melting point was 149 °C.
In turn, `O=[N+]([O-])c1cccc(-c2ccc3c(n2)[nH]c2ccccc23)c1` had a melting point of 185 °C.
With `CN1CC(=O)Nc2ncccc2C1=O` the figure was 245 to 247 °C.
`COC(=O)c1ccc(CC2=CCc3ccc(NC(=O)CC4CCCC4)cc32)c(OC)c1` came in with a melting point of 178 to 179 °C.
On to `Cc1cccc(Nc2cc(Nc3ccc(OCCCN(C)C)cc3)ncn2)c1`, for which the melting point lay within 204 to 207 °C.
As to `O=C(O)CON=c1c2nccc3c(Cl)ccc(c32)n2cccc12`, the melting point came out at 202 °C.
As to `OCCCc1cc(-c2ccc(Cl)cc2)n(-c2ccc(Cl)nn2)n1`, the melting point lay in the range of 131 to 133 °C.
Compound `CC(=O)c1cc(C#N)c(OCc2ccccc2)nc1C` registered a melting point of 94 to 99 °C.
`CSc1nc(=O)n(C)c(=O)[nH]1`: the melting point is 243 to 244 °C.
The compound `COc1cc(OC)c(OC)cc1CN1CCc2cc(OCc3ccccc3)c(OC)cc2C1` displayed a melting point of 110 to 111 °C.
On to `Cc1c(C#N)cnc(N)c1C#N`, for which the melting point fell in the range of 222 to 223 °C.
The compound `Oc1ccc(-c2c[nH]c(-c3cccnc3)n2)cc1` came in with a melting point of 315 to 318 °C.
With `Nc1ccc(F)c(F)c1NC(=S)Nc1c(Cl)cccc1Cl` the figure was more than 310 °C.
Turning to `CNC(Cc1ccccc1NC(=O)C(C)(C)C)c1cccnc1` (configuration not stated), the melting point lay within 91.5 to 96 °C.
As for `COc1cc2c(cc1Br)Cc1cc(Br)ccc1-2`, the melting point is 172 °C.
In the case of `COc1ccc(Cl)cc1C(=O)c1cc(C(F)(F)F)ccc1NC(=O)OC(C)(C)C` it was 148 to 150 °C; in that of `C[C@@H](N1CCN(c2nnn(Cc3ccc(C(F)(F)F)cc3)n2)CC1)[C@](O)(Cn1cncn1)c1ccc(F)cc1F`, 71 to 72 °C.
Turning to `Cc1cc2c(c(C)c1N)C(c1ccc(C(C)C)cc1)C(C)(C)O2` (configuration not stated), the melting point is 98 to 100 °C.
`CC(C)(C)c1cc(C(=O)Nc2ccc(Cl)c(C(=O)O)c2)cc(C(C)(C)C)c1O` had a melting point of 265 to 267 °C.
`O=c1[nH]c2ccc(CCN3CCN(c4cccc5ccccc45)CC3)cc2o1`: the melting point lay within 282 to 285 °C.
As to `COCn1ncc2cc(C(=O)OC)ccc21`, the melting point is 73 to 74 °C.

A word on the melting point: it is the temperature of the solid-liquid transition.

These data come from a melting point compilation (Tetko et al.; mined from patent text by program, amines drawn as free bases though some values may be those of a salt).
